Experimental data: patent US20030225152A1, “3-(Arylamino)methylene-1, 3-dihydro-2h-indol-2-ones as kinase inhibitors” (priority 2001, published 2003)
pIC50: −log10 of the molar value.

Assays:
[1] = test system: VEGF induced increases in intracellular calcium levels in HUVEC (human umbilical vein endothelial cells); test: VEGF Stimulated Ca++ Signal in vitro (FLIPR); type: cell-based; settings: VEGF 5 ng/mL; for pIC50: 0.01 to 10.0 μM
Outline: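 HUVEC loaded with Fluo-4 (45 min, 37° C.), washed, then pre-incubated 30 min with compound (10 μM single dose or 0.01–10.0 μM; 0.1% DMSO) before 5 ng/mL VEGF. Fluorescence at 516 nm read by FLIPR; IC50 from % inhibition of max-min VEGF response.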

[2] = target: T1, cytoplasmic domain of the human VEGF receptor (VEGFR-2) (Homo sapiens, UniProt P35968); test: KDR Assay; type: biochemical; settings: His-VEGFR-2; 3.6 μM ATP
T1 construct: The cytoplasmic domain of the human VEGF receptor (VEGFR-2) was expressed as a Histidine-tagged fusion protein; Histidine tag
T1 sequence (P35968 786-1356): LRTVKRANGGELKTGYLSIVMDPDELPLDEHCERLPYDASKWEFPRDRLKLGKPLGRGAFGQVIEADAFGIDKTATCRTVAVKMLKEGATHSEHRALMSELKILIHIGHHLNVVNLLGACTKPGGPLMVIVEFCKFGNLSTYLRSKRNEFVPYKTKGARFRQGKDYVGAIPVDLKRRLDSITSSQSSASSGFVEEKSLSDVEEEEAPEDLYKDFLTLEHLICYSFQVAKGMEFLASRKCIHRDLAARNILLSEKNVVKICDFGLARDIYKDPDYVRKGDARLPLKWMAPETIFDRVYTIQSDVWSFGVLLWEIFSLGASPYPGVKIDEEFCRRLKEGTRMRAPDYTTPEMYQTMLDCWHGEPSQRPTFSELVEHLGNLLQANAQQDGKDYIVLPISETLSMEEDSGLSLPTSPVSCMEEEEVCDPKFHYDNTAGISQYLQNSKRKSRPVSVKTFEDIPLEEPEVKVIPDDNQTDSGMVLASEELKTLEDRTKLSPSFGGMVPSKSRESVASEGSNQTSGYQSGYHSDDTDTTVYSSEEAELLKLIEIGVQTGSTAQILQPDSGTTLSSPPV
Outline: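 His-tagged human VEGFR-2 cytoplasmic domain from baculovirus-infected insect cells, acting on poly-Glu-Tyr (4:1)-coated plates with 3.6 μM ATP in Hepes pH 7.4 with MgCl2/MnCl2 and 5% final DMSO, 10 min at 25 °C. Phosphotyrosine detected by peroxidase-conjugated antibody ELISA at 492 nm; IC50 from blank-subtracted OD versus concentration.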

Row | pIC50 [2] | Structure (SMILES) | inhibition at 10 µM ([1]; Homo sapiens) [%] | pIC50 ([1]; Homo sapiens) | pIC50 [1]
1 | 6.28 | O=C(O)CCCc1ccc(NC=C2C(=O)Nc3ccccc32)cc1 [Example 139, 4-{4-[(2-Oxo-1,2-dihydro-indol-3-ylidenemethyl)-amino]-phenyl}-butyric acid] | 99.3 | 5.79 | –
2 | 6.40 | Cc1cccc2c1C(=CNc1ccc(CCCC(=O)O)cc1)C(=O)N2 [Example 140, 4-{4-[(4-Methyl-2-oxo-1,2-dihydro-indol-3-ylidenemethyl)-amino]-phenyl}-butyric acid] | 96.9 | – | –
3 | 6.29 | O=C(O)CCc1cccc(NC=C2C(=O)Nc3ccccc32)c1 [Example 141, 3-{3-[(2-Oxo-1,2-dihydro-indol-3-ylidenemethyl)-amino]-phenyl}-propionic acid] | 92.6 | 5.53 | –
4 | 6.34 | O=C(O)CCc1ccc(NC=C2C(=O)Nc3ccccc32)cc1 [Example 144, 3-{4-[(2-Oxo-1,2-dihydro-indol-3-ylidenemethyl)-amino]-phenyl}-propionic acid] | 96.5 | 5.57 | –
5 | 6.72 | Cc1cccc2c1C(=CNc1ccc(CCC(=O)O)cc1)C(=O)N2 [Example 145, 3-{4-[(4-Methyl-2-oxo-1,2-dihydro-indol-3-ylidenemethyl)-amino]-phenyl}-propionic acid] | 98.7 | ≥ 6.00 | 6.23
6 | 6.29 | O=C(O)CCc1ccc(NC=C2C(=O)Nc3ccc(Cl)cc32)cc1 [Example 146, 3-{4-[(5-Chloro-2-oxo-1,2-dihydro-indol-3-ylidenemethyl)-amino]-phenyl}-propionic acid] | 98.4 | 5.68 | –
7 | 6.52 | O=C(O)CCCc1ccc(NC=C2C(=O)Nc3ccc(Cl)cc32)cc1 [Example 150, 4-{4-[(5-Chloro-2-oxo-1,2-dihydro-indol-3-ylidenemethyl)-amino]-phenyl}-butyric acid] | 90.9 | 5.73 | –

Second part, the molecule before the results:

Row | Structure (SMILES) | pIC50 [2] | inhibition at 10 µM ([1]; Homo sapiens) [%] | pIC50 ([1]; Homo sapiens) | pIC50 [1]
8 | Cc1cccc2c1C(=CNc1cccc(CCC(=O)O)c1)C(=O)N2 [Example 142, 3-{3-[(4-Methyl-2-oxo-1,2-dihydro-indol-3-ylidenemethyl)-amino]-phenyl}-propionic acid] | 6.68 | 99.3 | 5.38 | –
9 | O=C(O)CCc1cccc(NC=C2C(=O)Nc3ccc(Cl)cc32)c1 [Example 143, 3-{3-[(5-Chloro-2-oxo-1,2-dihydro-indol-3-ylidenemethyl)-amino]-phenyl}-propionic acid] | 6.28 | 66.9 | 5.12 | –
10 | CCc1cccc(NC=C2C(=O)Nc3cccc(C)c32)c1 [Example 147, 3-[(3-Ethyl-phenylamino)-methylene]-4-methyl-1,3-dihydro-indol-2-one] | 6.82 | 71.6 | 5.26 | –
11 | CCc1ccc(NC=C2C(=O)Nc3ccc(Cl)cc32)cc1 [Example 149, 5-Chloro-3-[(4-ethyl-phenylamino)-methylene]-1,3-dihydro-indol-2-one] | 6.21 | 17.7 | – | –
12 | CCc1ccc(NC=C2C(=O)Nc3cccc(C)c32)cc1 [Example 151, 3-[(4-Ethyl-phenylamino)-methylene]-4-methyl-1,3-dihydro-indol-2-one] | 6.34 | 50.8 | – | –
13 | O=C1Nc2ccccc2C1=CNc1ccc(N2CCCCC2)cc1 [Example 158, 3-[(4-Piperidin-1-yl-phenylamino)-methylene]-1,3-dihydro-indol-2-one] | 6.41 | 97.5 | 5.94 | –
14 | CCN(CC)Cc1cc(NC=C2C(=O)Nc3ccccc32)ccc1O [Example 160, 3-[(3-Diethylaminomethyl-4-hydroxy-phenylamino)-methylene]-1,3-dihydro-indol-2-one] | 6.15 | 91.4 | 5.89 | –
